Assays:
[1] = Solid phase assay for lead: protein on nitrocellulose with chromogenic dye; conditions: combined results, various buffers, pH, salts and dyes
Description: A solid phase assay for the detection of lead was also developed using one or more synthetically produced lead-binding proteins. Both TB4 and ACBP and the various mutants that have been generated from them can be used in this assay. The experiment is performed by binding the protein to a solid surface support, such as nitrocellulose paper, cotton, glass microfibers, or polystyrene beads using, for example, methods described herein. Then the sample to be tested, such as saliva or blood, is placed onto the surface and allowed to react with the protein. After washing with buffer, or example a neutral non-chelating buffer to remove any unreacted material, the sample is treated with a ligand that can detect a lead-leading binding protein complex, for example, a ligand that can cause a color chance upon detecting a lead-protein complex. Examples of such ligands include, sodium sulfide and sodium rhodizonic acid. Furthermore, the concentration of the lead in the sample being tested may be determined by the intensity of the spot produced upon binding of the dye. […]
As a control, the assay was tested using solutions containing several different buffers, pH conditions, and salts for reaction with the sodium sulfide and sodium rhodizonic acid dyes used. […] The pH was determined empirically for rhodizonic acid over a range of pH 4 to pH 8. […]

[2] = lead binding; Quintanilla-Vega 1995, Smith 1998; read-out: dissociation constant (Kd) of high affinity lead-binding region; cited from earlier work

In the case of “thymosin beta-4 (MSDKPDMAEIEKFDKSKLKKTETQEKNPLPSKETIEQEKQAGES; listed as Homo sapiens) [TB4]”, the “performance of solid phase lead detection assay” value [1] is given as “works well under various conditions” and the Kd [2] is given as ~1 nM.

Reference: patent US20050049201A1, “Detection and removal of lead using lead-binding proteins” (priority 2001, published 2005)
